Laboratory results reported in patent US20240197760A1, “ACTIVATORS OF INTEGRATED STRESS RESPONSE PATHWAY FOR PROTECTION AGAINST FERROPTOSIS” (Burke Neurological Institute, priority 2021, published 2024).
Entries after “also recorded” stand apart in the source; their conditions may differ.

Assays:
Bdnf = Bdnf gene expression in mouse brain cortex after intraperitoneal injection; format: in vivo
JTC-19 line = conditions: JTC-19 lung cancer line; cited from earlier work
Trib3, Chac1, Bip = assay: Expression of ATF4 target genes and chaperone Bip in mouse primary neurons; format: cell-based; conditions: 6 h, mouse primary neurons
Experimental: Total RNA was extracted from primary cortical neurons using NucleoSpin RNA II Kit (Clontech, Catalog number—740955-250). Thereafter, using the Taqman RNA-to-Ct, one step kit (Thermo Fisher Scientific, catalog number—4392938) and following the manufacturer's instructions, […] from each sample was mixed with the Taqman® Gene Expression Master Mix and Taqman® Gene Expression Assays for Creb1 (Catalog number—Mm00501607_m1), Bdnf (Catalog number—Mm04230607_s1), Rbbp4 (Catalog number—Mm00771401_g1), Bip (Catalog number—Mm00517691_m1), Trib3 (Catalog number—Mm00454879_m1), and Chac1 (Catalog number—Mm00509926_m1) with FAM labelled probe and Actin with VIC labelled probe all from Thermo Fisher Scientific on an Applied Biosystems 7500 Fast Real Time PCR System. For assessing gene expression of various specific Bdnf exons in mouse primary neurons, two step qPCR was used. Total RNA from primary cortical neurons was extracted using NucleoSpin RNA II Kit (Clontech, Catalog number—740955-250) and a total of 1.5 μg RNA was used to synthesize cDNA with the SuperScript® III First-Strand Synthesis System (Thermo Fisher Scientific, Catalog number—18080051). Quantitative RT-PCR was then performed using SYBR green (Thermo Fisher Scientific, Catalog number—4309155) on an Applied Biosystems 7500 Fast Real Time PCR System. Quantitative levels for all genes were normalized to the housekeeping gene GAPDH and expressed relative to the relevant control samples as fold change. The sequences of primers used in this part of the study were as follows: Bdnf I forward: […] (SEQ ID NO:9) and Bdnf I reverse: […] (SEQ ID NO:10); Bdnf II forward: […] (SEQ ID NO:11) and Bdnf II reverse: […] (SEQ ID NO:12); Bdnf IV forward #2: […] (SEQ ID NO:13) and Bdnf IV reverse #2: […] (SEQ ID NO:14); Bdnf VI forward: […] (SEQ ID NO:15) and Bdnf VI reverse: […] (SEQ ID NO:16); Bdnf VII forward: […] (SEQ ID NO:17) and Bdnf VII reverse: […] (SEQ ID NO:18) Bdnf IX forward: […] (SEQ ID NO:19) and Bdnf IX reverse: […] (SEQ ID NO:20); Gapdh forward #2: […] (SEQ ID NO:21) and Gapdh reverse #2: […] (SEQ ID NO: 22).

[1] = indicated by FDG PET studies; cited from earlier work
rats = conditions: dietary supplementation in rats; cited from earlier work

OC[C@H]1OC(O)C[C@@H](O)[C@@H]1O (stereo partly drawn) [2-DG, (4R,5S,6R)-6-(hydroxymethyl)oxane-2,4,5-triol]
Bdnf gene expression in mouse brain cortex (Bdnf; 10 mg/Kg intraperitoneal injection for 6 h): significant increase
driving the adaptive plasticity program (Bdnf; intraperitoneal injection at 10 mg/Kg): sufficient in driving the adaptive plasticity program
Bdnf gene expression (JTC-19 line): inhibit the Bdnf gene expression
expression of ATF4 target genes Trib3 and Chac1 (Trib3, Chac1, Bip): enhanced expression; also recorded: Increase
crossing of the blood brain barrier [1]: can easily cross the blood brain barrier
physiological effects (insulin level, body temperature, blood pressure, heart rate, plasma glucose level, stress adaptation) (rats): mimic the physiological effects of calorie restriction
